Assay results as given in patent US20080140138A1, “Inhibition of inflammatory cytokine production by stimulation of brain muscarinic receptors” (priority 2002, published 2008).
Counter-ions that a name gives are not always drawn.

Experiments:
[1] = test system: carrageenan-induced hindpaw edema; assay: Carrageenan-induced hindpaw edema; format: in vivo, Lewis rats
Description: Method of determining CNI-1493 receptor binding. CNI-1493 was tested at a single concentration (10 μM) in a panel of receptor binding assays by NovaScreen Biosciences Corporation (Hanover, Md.). Values were expressed as the percent inhibition of specific binding, and represented the average of duplicate tubes. Method of stereotactic intracerebroventricular injections. A rat model of intracerebroventricular (i.c.v.) injections was established in order to be able to directly deliver pharmacological agents into the brain of rats. This was necessary in order to separate drug effects on peripheral inflammation that occurred through central versus peripheral mechanisms. Lewis rats were anaesthetized with urethane (1 g/kg, i.p.) and xylazine (15 mg/rat, i.m. (intramuscular)). Rats were then placed in a stereotactic head frame (Stoelting, Wood Dale, Ill., USA). The incisor bar was adjusted until the plane defined by the lambda and bregma was parallel to the base plate. For i.c.v. injections the needle of a Hamilton syringe (25 μl) was positioned stereotactically above the lateral ventricle (0.2 mm and 1.5 mm posterior to bregma, 3.2 mm below the dura.) Solutions of the drugs tested were prepared in sterile endotoxin-free water, at the specified concentrations, and a 10-μl injection/rat was administered over 2 min, 1 h prior to either carrageenan injection, or to LPS.
The tested drugs, in either the carrageenan and/or LPS experiments, were: saline control; fluoxetine hydrochloride, (also known as Prozak) (0.01 mg/100 g); muscarine (50 μg/rat, 5 μg/rat, 0.5 μg/rat, 0.05 μg/rat, 0.005 μg/rat); 4-(N-[3-chlorophenyl]carbamoyloxy)-2-butynyltrimethylammonium chloride (also known as McN-A-343) (5 μg/rat); Muscarinic Toxin-3, (also known as MT-3) from Dendroaspis angusticeps snake venom (0.37 μg/rat); nicotine (10 μg/rat); CNI-1493 (1 μg/kg, 50 μg/rat); atropine (1 μg/kg, 5 μg/rat); CNI-1493 plus atropine (1 μg/kg of each of the drugs; 50 μg/rat, 5 μg/rat respectively); naloxone hydrochloride (2 μg/rat), CNI-1493 plus naloxone (50 μg/rat+5 μg/rat respectively); and morphine (20 μg/rat).
Method of carrageenan-induced hindpaw edema. Paw edema was induced in anaesthetized rats by injection of 1% solution of 1-carrageenan (100 μl) into the plantar surface of the left hindpaw. The right hindpaw was injected with the same volume of saline alone (as control). The thickness of the carrageenan-treated and saline-treated hindpaw was measured using a caliper at 3 h post carrageenan, and the difference between paw thickness calculated as an index of inflammation (paw swelling). Method of LPS injections and TNF determination. LPS (15 mg/kg, i.v.) was injected in the tail vein 1 h after drug injection. Blood was obtained 2 h post LPS injection by paraorbital bleeding. Serum TNF concentrations were determined by an L929 bioactivity assay. Method of assessing TNF by the L929 bioactivity assay. L929 cells were suspended in Dulbecco's minimal Eagle's medium (DMEM; GibcoBRL) supplemented with fetal bovine serum (10%; Hyclone) and penicillin/streptomycin (0.5%; Sigma Chemical Co.), and plated at 2×10^4 cells per well in 96-well flat-bottomed microtiter plates. After 24 h, media were respirated and replaced with medium containing cycloheximide (10 μg/ml; Sigma Chemical Co.) and the samples to be assayed/TNF standards. Plates were incubated overnight, at which time cell viability as a function of TNF concentration was assessed by the MTT assay. Absorbance values were converted to units per milliliter by comparison with a standard curve for rat TNF.
In a third set of experiments, rats were injected by i.c.v. means with either saline (n=4), CNI-1493 (5 μg/rat, n=3), CNI-1493 plus atropine (5 μg/rat each), or atropine (5 μg/rat). Carrageenan was given to the animals 1 h later, and paw edema was determined 3 h post carrageenan. […]

[2] = test system: LPS-induced serum TNF; assay: LPS-induced serum TNF after i.c.v. drug injection, L929 bioactivity assay; format: in vivo, Lewis rats; conditions: i.c.v.; for effect in reducing LPS-induced serum TNF levels: nicotine 10 μg/rat, prozak 0.01 mg/10 g, LPS 15 mg/kg i.v. 1 h later
Description: Method of stereotactic intracerebroventricular injections. […] Lewis rats were anaesthetized with urethane (1 g/kg, i.p.) and xylazine (15 mg/rat, i.m. (intramuscular)). Rats were then placed in a stereotactic head frame (Stoelting, Wood Dale, Ill., USA). The incisor bar was adjusted until the plane defined by the lambda and bregma was parallel to the base plate. For i.c.v. injections the needle of a Hamilton syringe (25 μl) was positioned stereotactically above the lateral ventricle (0.2 mm and 1.5 mm posterior to bregma, 3.2 mm below the dura.) Solutions of the drugs tested were prepared in sterile endotoxin-free water, at the specified concentrations, and a 10-μl injection/rat was administered over 2 min, 1 h prior to either carrageenan injection, or to LPS.
In one set of experiments, rats were injected by i.c.v. means with either saline (n=1), CNI-1493 (5 μg/rat, n=3), CNI-1493 plus atropine (5 μg/rat each), or atropine (5 μg/rat). LPS (15 mg/kg, i.v.) was given 1 h later. Blood was collected 2 h post LPS administration. Serum TNF was determined by the L929 assay.

[3] = test system: carrageenan-induced paw edema; conditions: low doses, direct administration to the brain; cited from earlier work
[4] = test system: LPS-induced TNF; assay: LPS-induced TNF in serum and tissues after muscarine, ELISA; format: in vivo, rats; conditions: for LPS-induced heart TNF levels: heart tissue
Description: Methods of stereotactic intracerebroventricular injection of muscarine into rats and LPS injections were as described in Example 1. TNF levels in serum and tissues were determined using an enzyme-inked immunosorbent assay (ELISA) according to the manufacturere's instructions (R & D Systems (Minneapolis, Minn.)).
Rats were injected by i.c.v. means with either saline (control) or muscarine (0.005 μg/kg body weight, 0.5 μg/kg body weight, 5.0 μg/kg body weight, or 50 μg/kg body weight). LPS was administered 1 hour later. Two hours after LPS administration the rats were sacrificed and blood, heart tissue, and spleen tissue were isolated from the rats. As shown in FIGS. 9A-9C, i.c.v. administration of muscarine inhibited LPS-induced serum, heart, and spleen (peripheral) TNF levels.
Methods of LPS injections were as described in Example 1. Determination of serum and tissue TNF levels were as described in Example 4. Muscarine (or control saline) was intravenously injected into rats at concentrations of 0.05 μg/kg body weight, 0.5 μg/kg body weight, or 5.0 μg/kg body weight.
Rats were injected by i.v. means with either saline (control) or muscarine (0.05 μg/kg body weight, 0.5 μg/kg body weight, or 5.0 μg/kg body weight). LPS was administered 1 hour later. Two hours after LPS administration the rats were sacrificed and blood, liver tissue, heart tissue, and spleen tissue were isolated from the rats and assayed for TNF concentrations. As shown in FIGS. 10A-10D, intravenous administration of muscarine had no effect on LPS-induced serum, liver, heart, and spleen TNF levels.

[5] = muscarine i.c.v. 0.005-50 μg/kg body weight
[6] = muscarine i.v. 0.05, 0.5, 5.0 μg/kg body weight

For `C[N+](C)(C)CC#CCOC(=O)Nc1cccc(Cl)c1.[Cl-]` [McN-A-343, 4-(N-[3-chlorophenyl]carbamoyloxy)-2-butynyltrimethylammonium chloride], which “inhibition of paw edema, i.c.v. compared with i.p. administration” value ([1]; 5 μg/rat i.c.v. versus 5 mg/kg i.p.) is on record?
The value was “comparable effect on inhibition of carrageenan-induced paw edema as a higher dose administered intraperitoneally”.

What about the “inhibition of carrageenan-induced paw edema” value ([1]; i.c.v., McN-A-343 5 μg/rat, MT-3 0.37 μg/rat) of the same molecule?
The value was “significantly inhibits”.

With `CN1[C@@H]2CC[C@H]1C[C@@H](OC(=O)C(CO)c1ccccc1)C2` (stereo partly shown) [atropine] as the molecule, how does the “effect of atropine on CNI-1493 inhibition of LPS-induced serum TNF” value ([2]; CNI-1493 plus atropine, 5 μg/rat each) read?
Its value is “reversed the inhibitory effect of CNI-1493 to the TNF level of atropine alone”.

And the “effect of atropine on CNI-1493 inhibition of paw edema” value ([1]; CNI-1493 plus atropine, 5 μg/rat each, i.c.v.)?
Its value is “reverses the effect”.

With `C[N+](C)(C)CCOC(N)=O` [carbachol] as the molecule, how does the “effect on carrageenan-induced paw edema” value [3] read?
The value was “attenuation of paw edema”.

Which “LPS-induced heart TNF levels” value [4, 5] does the source give for `C[C@@H]1O[C@H](C[N+](C)(C)C)C[C@H]1O` [muscarine] here?
The value was “inhibited”.

And the “LPS-induced serum TNF levels” value [4, 5]?
The value was “inhibited”.

And the “LPS-induced spleen TNF levels” value [4, 5]?
Its value is “inhibited”.

And the “LPS-induced heart TNF levels” value [4, 6]?
The value was “no effect”.

What about the “LPS-induced liver TNF levels” value ([4]; muscarine i.v. 0.05, 0.5, 5.0 μg/kg body weight, liver) of the same molecule?
Its value is “no effect”.

What about the “LPS-induced serum TNF levels” value [4, 6] of the same molecule?
Its value is “no effect”.

And the “LPS-induced spleen TNF levels” value [4, 6]?
The value was “no effect”.

And the “effect of vagotomy on muscarine inhibition of paw edema” value ([1]; muscarine 0.5 μg/rat i.c.v., bilateral cervical vagotomy, P=0.015 SAL v. MUS, P=0.039 MUS v. MUS-VGX)?
The value was “Vagotomy clearly abrogates the inhibitory effects”.

What about the “inhibition of carrageenan-induced paw edema” value ([1]; muscarine i.c.v. 5, 0.5, 0.05, 0.005 μg/rat) of the same molecule?
Its value is “significantly inhibits carrageenan-induced paw edema in a dose-dependent manner”.

Which “effect in reducing LPS-induced serum TNF levels” value [2] does the source give for `CN1CCCC1c1cccnc1` (stereo not shown) [nicotine] here?
Its value is “Neither nicotine nor prozak had any effect”.

Which “effect in reducing LPS-induced serum TNF levels” value [2] does the source give for `CNCCC(Oc1ccc(C(F)(F)F)cc1)c1ccccc1` (stereo not shown) [prozak, fluoxetine hydrochloride] here?
The value was “Neither nicotine nor prozak had any effect”.
